Measured values as given in US20080214589A1, “Thrombin Inhibiting 2,4-Dioxo-3,4-Dihydropyrimidine Derivatives” (ASTRAZENECA AB, priority 2005, published 2008).

Biological target: T1, Human a-thrombin (Homo sapiens, UniProt P00734)
T1 construct: Human a-thrombin, Sigma Chemical Co. or Hematologic Technologies; purchased Sigma Chemical Co. or Hematologic Technologies
Assay: Test B: thrombin inhibition with a chromogenic, robotic assay
Assay type: biochemical
Details: chromogenic substrate S-2366, 40 minutes incubation at 37° C.
Experimental: Determination of Thrombin Inhibition with a Chromogenic, Robotic Assay
The thrombin inhibitor potency is measured with a chromogenic substrate method, in a Plato 3300 robotic microplate processor (Rosys AG, CH-8634 Hombrechtikon, Switzerland), using 96-well, half volume microtitre plates (Costar, Cambridge, Mass., USA; Cat No 3690). Stock solutions of test substance in DMSO (72 μL), 0.1-1 mmol/L, are diluted serially 1:3 (24+48 μL) with DMSO to obtain ten different concentrations, which are analysed as samples in the assay. 2 μL of test sample is diluted with 124 μL assay buffer, 12 μL of chromogenic substrate solution (S-2366, Chromogenix, Mölndal, Sweden) in assay buffer and finally 12 μL of a-thrombin solution (Human a-thrombin, Sigma Chemical Co. or Hematologic Technologies) in assay buffer, are added, and the samples mixed. The final assay concentrations are: test substance 0.00068-133 μmol/L, S-2366 0.30 mmol/L, a-thrombin 0.020 NIHU/mL. The linear absorbance increment during 40 minutes incubation at 37° C. is used for calculation of percentage inhibition for the test samples, as compared to blanks without inhibitor. The IC50-robotic value, corresponding to the inhibitor concentration which causes 50% inhibition of the thrombin activity, is calculated from a log concentration vs. % inhibition curve.

Row | SMILES | IC50 [nM]
1 | Cc1cc(N)nc(C)c1CNC(=O)Cn1c(C)cc(=O)n(NCC(F)(F)c2ccccn2)c1=O [5(a), N-[(6-Amino-2,4-dimethylpyridin-3-yl)methyl]-2-[3-[(2,2-difluoro-2-pyridin-2-ylethyl)amino]-6-methyl-2,4-dioxo-3,4-dihydropyrimidin-1(2H)-yl]acetamide] | 169
2 | Cc1cc(=O)n(NCC(F)(F)c2ccccn2)c(=O)n1CC(=O)NCc1cc(Cl)ccc1CN [Example 2, N-[2-(Aminomethyl)-5-chlorobenzyl]-2-[3-[(2,2-difluoro-2-pyridin-2-ylethyl)-amino]-6-methyl-2,4-dioxo-3,4-dihydropyrimidin-1(2H)-yl]acetamide] | 32.7
